ChEMBL document CHEMBL4411276, “Chemistry-oriented synthesis (ChOS) and target deconvolution on neuroprotective effect of a novel scaffold, oxaza spiroquinone” (Eur J Med Chem, 2019)

Tests used:
[1] = molecular target: Mitogen-activated protein kinase 8 (Homo sapiens) (UniProt P45983); experiment: Inhibition of human JNK1 assessed as enzyme activity at 30 uM using ATF2 as substrate by [gamma-33P]-ATP assay relative to control; set-up: scale not given: the % may be the effect or the level left
[2] = molecular target: Death-associated protein kinase 1 (Homo sapiens) (UniProt P53355); experiment: Inhibition of human DAPK1 assessed as enzyme activity at 30 uM using KKLNRTLSFAEPG as substrate by [gamma-33P]-ATP assay relative to control; set-up: scale not given: the % may be the effect or the level left
Chain of Death-associated protein kinase 1 (Homo sapiens) (P53355 whole entry, looked up): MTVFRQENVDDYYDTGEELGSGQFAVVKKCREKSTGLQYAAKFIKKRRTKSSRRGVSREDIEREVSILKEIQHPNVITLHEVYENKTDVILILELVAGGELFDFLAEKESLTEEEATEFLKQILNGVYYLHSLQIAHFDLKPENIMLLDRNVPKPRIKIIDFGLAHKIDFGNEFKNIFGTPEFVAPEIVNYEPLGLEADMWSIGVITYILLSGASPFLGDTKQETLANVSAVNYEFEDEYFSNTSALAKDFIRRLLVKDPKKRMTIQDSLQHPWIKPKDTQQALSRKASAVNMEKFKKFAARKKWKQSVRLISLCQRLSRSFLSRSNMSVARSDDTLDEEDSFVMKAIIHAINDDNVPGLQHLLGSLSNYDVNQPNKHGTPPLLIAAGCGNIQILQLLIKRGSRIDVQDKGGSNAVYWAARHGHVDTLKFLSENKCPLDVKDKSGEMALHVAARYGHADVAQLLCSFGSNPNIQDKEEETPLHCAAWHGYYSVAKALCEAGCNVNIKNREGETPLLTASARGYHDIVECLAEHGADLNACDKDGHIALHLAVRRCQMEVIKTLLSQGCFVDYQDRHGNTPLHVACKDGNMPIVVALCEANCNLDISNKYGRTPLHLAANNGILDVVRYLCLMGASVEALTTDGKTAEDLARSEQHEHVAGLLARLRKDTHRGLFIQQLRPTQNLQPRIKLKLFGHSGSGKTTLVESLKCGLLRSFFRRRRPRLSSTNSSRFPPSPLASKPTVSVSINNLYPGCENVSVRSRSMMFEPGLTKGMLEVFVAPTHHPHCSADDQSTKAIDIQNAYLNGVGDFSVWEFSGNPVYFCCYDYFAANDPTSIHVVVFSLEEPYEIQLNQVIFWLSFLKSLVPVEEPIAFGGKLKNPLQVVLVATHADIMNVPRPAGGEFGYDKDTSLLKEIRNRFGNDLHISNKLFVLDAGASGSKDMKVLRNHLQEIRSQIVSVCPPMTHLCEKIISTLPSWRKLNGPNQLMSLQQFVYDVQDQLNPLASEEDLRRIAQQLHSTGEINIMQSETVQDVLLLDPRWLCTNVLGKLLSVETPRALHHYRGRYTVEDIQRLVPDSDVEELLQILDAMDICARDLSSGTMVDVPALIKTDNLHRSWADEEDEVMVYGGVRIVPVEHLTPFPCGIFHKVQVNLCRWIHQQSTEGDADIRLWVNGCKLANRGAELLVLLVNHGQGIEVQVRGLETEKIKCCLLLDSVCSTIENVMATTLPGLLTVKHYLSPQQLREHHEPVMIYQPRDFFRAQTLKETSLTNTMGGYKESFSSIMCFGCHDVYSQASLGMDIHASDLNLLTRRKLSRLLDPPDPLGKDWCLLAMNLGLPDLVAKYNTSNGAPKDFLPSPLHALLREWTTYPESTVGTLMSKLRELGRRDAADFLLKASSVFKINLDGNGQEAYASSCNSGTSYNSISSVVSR

[3] = molecular target: Mitogen-activated protein kinase 9 (Homo sapiens) (UniProt P45984); experiment: Inhibition of human JNK2 assessed as enzyme activity at 30 uM using ATF2 as substrate by [gamma-33P]-ATP assay relative to control; set-up: scale not given: the % may be the effect or the level left
Chain of Mitogen-activated protein kinase 9 (Homo sapiens) (P45984 whole entry, looked up): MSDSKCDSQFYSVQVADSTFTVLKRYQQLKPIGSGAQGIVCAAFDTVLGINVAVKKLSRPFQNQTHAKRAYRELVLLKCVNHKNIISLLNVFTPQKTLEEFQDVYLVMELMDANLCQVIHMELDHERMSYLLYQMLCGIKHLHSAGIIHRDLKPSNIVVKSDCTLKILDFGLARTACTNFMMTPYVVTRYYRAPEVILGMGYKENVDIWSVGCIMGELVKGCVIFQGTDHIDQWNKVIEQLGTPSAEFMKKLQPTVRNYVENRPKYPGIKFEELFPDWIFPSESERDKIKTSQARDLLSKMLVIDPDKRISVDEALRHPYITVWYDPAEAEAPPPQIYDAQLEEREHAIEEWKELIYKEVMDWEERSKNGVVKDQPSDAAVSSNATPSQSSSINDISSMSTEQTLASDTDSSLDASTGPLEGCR

[4] = molecular target: T1, Serine/threonine-protein kinase tousled-like 1 (Homo sapiens) (UniProt Q9UKI8); experiment: Inhibition of human TLK1 assessed as enzyme activity at 30 uM using Histone H3 as substrate by [gamma-33P]-ATP assay relative to control; set-up: scale not given: the % may be the effect or the level left
T1 sequence (whole entry): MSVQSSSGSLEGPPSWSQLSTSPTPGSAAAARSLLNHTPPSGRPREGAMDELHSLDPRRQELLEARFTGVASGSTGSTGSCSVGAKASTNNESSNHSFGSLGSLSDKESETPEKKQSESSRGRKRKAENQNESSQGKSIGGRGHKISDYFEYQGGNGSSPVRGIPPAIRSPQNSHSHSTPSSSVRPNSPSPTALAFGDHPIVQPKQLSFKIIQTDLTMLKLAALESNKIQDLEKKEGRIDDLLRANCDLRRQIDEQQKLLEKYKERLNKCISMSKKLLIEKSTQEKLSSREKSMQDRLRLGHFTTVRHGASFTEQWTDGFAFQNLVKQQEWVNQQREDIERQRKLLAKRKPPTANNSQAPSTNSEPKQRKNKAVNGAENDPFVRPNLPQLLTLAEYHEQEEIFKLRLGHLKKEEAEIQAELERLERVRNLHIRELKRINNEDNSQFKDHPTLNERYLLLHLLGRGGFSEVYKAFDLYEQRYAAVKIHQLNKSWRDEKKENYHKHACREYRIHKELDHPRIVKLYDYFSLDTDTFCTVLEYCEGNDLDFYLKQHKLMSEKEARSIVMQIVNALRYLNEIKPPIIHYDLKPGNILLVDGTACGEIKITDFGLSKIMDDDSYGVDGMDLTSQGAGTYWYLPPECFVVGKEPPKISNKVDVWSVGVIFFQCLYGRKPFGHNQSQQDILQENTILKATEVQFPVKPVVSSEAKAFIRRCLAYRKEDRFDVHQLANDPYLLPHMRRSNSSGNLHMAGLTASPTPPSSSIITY

[5] = molecular target: Protein kinase C beta type (Homo sapiens) (UniProt P05771); experiment: Inhibition of human PKCb2 assessed as enzyme activity at 30 uM using Histone H1 as substrate by [gamma-33P]-ATP assay relative to control; set-up: scale not given: the % may be the effect or the level left
Chain of Protein kinase C beta type (Homo sapiens) (P05771 2-671 limits assumed): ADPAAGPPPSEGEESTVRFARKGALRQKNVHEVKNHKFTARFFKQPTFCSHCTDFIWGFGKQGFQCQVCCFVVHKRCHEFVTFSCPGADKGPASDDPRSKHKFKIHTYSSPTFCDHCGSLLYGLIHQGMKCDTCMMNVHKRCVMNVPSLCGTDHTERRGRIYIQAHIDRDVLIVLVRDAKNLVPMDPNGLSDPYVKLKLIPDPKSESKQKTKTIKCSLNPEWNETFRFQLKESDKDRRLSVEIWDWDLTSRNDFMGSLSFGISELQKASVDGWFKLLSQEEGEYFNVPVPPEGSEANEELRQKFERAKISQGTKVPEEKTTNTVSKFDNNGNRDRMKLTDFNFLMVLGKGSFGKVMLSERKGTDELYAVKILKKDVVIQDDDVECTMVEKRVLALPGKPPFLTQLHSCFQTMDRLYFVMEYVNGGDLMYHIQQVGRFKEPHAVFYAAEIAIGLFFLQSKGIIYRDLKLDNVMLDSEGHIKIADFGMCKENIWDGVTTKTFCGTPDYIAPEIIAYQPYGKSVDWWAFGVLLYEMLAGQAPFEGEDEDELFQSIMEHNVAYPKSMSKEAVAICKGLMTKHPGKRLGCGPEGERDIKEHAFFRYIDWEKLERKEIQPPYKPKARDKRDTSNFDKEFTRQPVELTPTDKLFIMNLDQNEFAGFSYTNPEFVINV

[6] = molecular target: Serine/threonine-protein kinase 25 (Homo sapiens) (UniProt O00506); experiment: Inhibition of human STK25 assessed as enzyme activity at 30 uM using MBP as substrate by [gamma-33P]-ATP assay relative to control; set-up: scale not given: the % may be the effect or the level left
Chain of Serine/threonine-protein kinase 25 (Homo sapiens) (O00506 whole entry, looked up): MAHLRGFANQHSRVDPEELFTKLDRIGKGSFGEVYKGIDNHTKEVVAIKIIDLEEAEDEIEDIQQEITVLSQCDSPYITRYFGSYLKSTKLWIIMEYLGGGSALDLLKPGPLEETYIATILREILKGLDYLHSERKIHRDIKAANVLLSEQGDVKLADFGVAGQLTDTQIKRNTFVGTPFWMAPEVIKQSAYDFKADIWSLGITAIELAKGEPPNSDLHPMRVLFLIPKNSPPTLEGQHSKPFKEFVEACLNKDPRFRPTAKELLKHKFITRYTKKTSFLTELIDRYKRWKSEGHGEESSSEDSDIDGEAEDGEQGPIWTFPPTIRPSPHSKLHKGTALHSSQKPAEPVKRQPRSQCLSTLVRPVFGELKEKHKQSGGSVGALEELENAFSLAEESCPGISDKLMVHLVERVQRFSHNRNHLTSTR

Mus musculus = experiment: Effect on total entries in ICR mouse model of scopolamine-induced memory impairment at 5 mg/kg by Y-maze test; format: ADME, organism-based; conditions: in vivo
[7] = molecular target: T2, Serine/threonine-protein kinase haspin (Homo sapiens) (UniProt Q8TF76); experiment: Inhibition of human haspin assessed as enzyme activity at 30 uM using Histone H3 as substrate by [gamma-33P]-ATP assay relative to control; set-up: scale not given: the % may be the effect or the level left
T2 sequence (whole entry): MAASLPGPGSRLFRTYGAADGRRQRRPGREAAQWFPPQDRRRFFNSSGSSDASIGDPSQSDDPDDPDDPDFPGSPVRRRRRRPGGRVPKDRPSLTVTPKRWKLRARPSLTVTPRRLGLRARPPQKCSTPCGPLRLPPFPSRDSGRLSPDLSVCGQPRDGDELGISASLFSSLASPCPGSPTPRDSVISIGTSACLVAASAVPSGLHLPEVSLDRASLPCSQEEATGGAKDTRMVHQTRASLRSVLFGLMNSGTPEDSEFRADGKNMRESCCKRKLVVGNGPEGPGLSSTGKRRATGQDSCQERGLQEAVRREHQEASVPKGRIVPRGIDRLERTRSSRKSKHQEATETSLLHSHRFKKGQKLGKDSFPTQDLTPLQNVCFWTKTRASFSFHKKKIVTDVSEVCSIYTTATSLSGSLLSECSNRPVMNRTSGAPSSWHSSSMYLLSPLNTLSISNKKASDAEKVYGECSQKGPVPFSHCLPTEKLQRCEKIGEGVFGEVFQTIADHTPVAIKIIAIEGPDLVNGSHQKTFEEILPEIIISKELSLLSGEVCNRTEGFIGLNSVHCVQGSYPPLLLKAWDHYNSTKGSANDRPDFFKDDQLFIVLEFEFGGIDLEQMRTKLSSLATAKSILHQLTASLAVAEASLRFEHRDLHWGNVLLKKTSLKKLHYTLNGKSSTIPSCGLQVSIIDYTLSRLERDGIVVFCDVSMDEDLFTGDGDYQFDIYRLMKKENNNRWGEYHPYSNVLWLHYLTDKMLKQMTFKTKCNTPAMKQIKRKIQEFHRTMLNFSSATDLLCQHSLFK

Chain of Mitogen-activated protein kinase 8 (Homo sapiens) (P45983 whole entry): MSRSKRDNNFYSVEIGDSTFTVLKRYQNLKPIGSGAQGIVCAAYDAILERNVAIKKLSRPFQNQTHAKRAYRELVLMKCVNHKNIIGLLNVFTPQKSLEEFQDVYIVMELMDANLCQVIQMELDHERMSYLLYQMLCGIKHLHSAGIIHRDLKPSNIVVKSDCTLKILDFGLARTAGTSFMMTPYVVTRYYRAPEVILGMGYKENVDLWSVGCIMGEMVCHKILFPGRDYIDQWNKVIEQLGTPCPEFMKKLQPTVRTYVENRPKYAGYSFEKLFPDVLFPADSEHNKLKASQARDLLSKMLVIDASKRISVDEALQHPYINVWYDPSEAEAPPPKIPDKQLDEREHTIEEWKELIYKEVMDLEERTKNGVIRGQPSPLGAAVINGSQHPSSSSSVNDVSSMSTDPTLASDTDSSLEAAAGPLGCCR

Q: How did the Activity [1] turn out when O=C1C=CC2(C=C1)OCC(Cc1cc(C(F)(F)F)cc(C(F)(F)F)c1)C(=O)N2c1ccccc1 (stereo not drawn) was run?
A: The Activity was 35.6 to 36%.

Q: And the Activity [2]?
A: The Activity was 45.3 to 45.4%.

Q: And the Activity [3]?
A: The Activity was 57.8 to 58.8%.

Q: And the Activity [4]?
A: The Activity was 57.3 to 58.6%.

Q: What about the Activity [5] of the same compound?
A: Its Activity is 67.7 to 71.2%.

Q: And the Activity [6]?
A: The Activity was 66.9 to 67%.

Q: And the Activity (Mus musculus)?
A: The Activity was “Non-Toxic”.

Q: And the Activity [7]?
A: Its Activity is 66.1 to 66.8%.
